Data as given in ChEMBL document CHEMBL1201862, “PubChem BioAssay data set” (2004).
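Exposure lasted 48 hours, with cells grown in 96-well plates and compounds tested at five concentrations. Here, GI50 denotes the concentration required for 50% inhibition of growth.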 Calls of active or inactive are those of the source. Rule as the data show it: active = GI50 up to about 1.1 µM and inactive = higher.

Assays:
Experiment in all cases: NCI tumour cell line growth inhibition, 48 h
MDA-MB-435 = test system: MDA-MB-435
786-0 = test system: 786-0
SF-295 = test system: SF-295
SNB-75 = test system: SNB-75
NCI-H226 = test system: NCI-H226
SN12C = test system: SN12C
Malme-3M = test system: Malme-3M
CCRF-CEM = test system: CCRF-CEM
SK-MEL-5 = test system: SK-MEL-5
U-251 = test system: U-251
SK-OV-3 = test system: SK-OV-3
OVCAR-4 = test system: OVCAR-4
HCC 2998 = test system: HCC 2998
MOLT-4 = test system: MOLT-4
SNB-19 = test system: SNB-19
COLO 205 = test system: COLO 205
UACC-62 = test system: UACC-62
MCF7 = test system: MCF7
SF-268 = test system: SF-268

Measured: GI50

CC(C)CC(=O)CC(O)C(Cl)(Cl)Cl (stereo not given)
inactive: MDA-MB-435 > 100 µM | 786-0 > 100 µM | SF-295 > 100 µM | SNB-75 > 100 µM | NCI-H226 > 100 µM | SN12C > 100 µM | Malme-3M 20.7 µM | CCRF-CEM > 100 µM | SK-MEL-5 > 100 µM | U-251 > 100 µM | SK-OV-3 87.1 µM | OVCAR-4 > 100 µM | HCC 2998 > 100 µM | MOLT-4 > 100 µM | SNB-19 > 100 µM | COLO 205 > 100 µM | UACC-62 > 100 µM | MCF7 > 100 µM

c1ccc2[nH]c(C3CCCCO3)nc2c1 (stereo not given)
inactive: MDA-MB-435 > 100 µM | 786-0 > 100 µM | SF-295 > 100 µM | SNB-75 > 100 µM | NCI-H226 6.41 µM | SN12C > 100 µM | Malme-3M > 100 µM | CCRF-CEM > 100 µM | SK-MEL-5 > 100 µM | U-251 > 100 µM | SK-OV-3 > 100 µM | OVCAR-4 > 100 µM | HCC 2998 > 100 µM | MOLT-4 > 100 µM | SNB-19 > 100 µM | COLO 205 > 100 µM | UACC-62 > 100 µM | SF-268 > 100 µM | MCF7 > 100 µM

CC(=O)NC(NCCN)(c1ccccc1)c1ccccc1
inactive: MDA-MB-435 > 100 µM | 786-0 > 100 µM | SF-295 > 100 µM | SNB-75 > 100 µM | NCI-H226 > 100 µM | SN12C > 100 µM | Malme-3M > 100 µM | CCRF-CEM > 100 µM | SK-MEL-5 > 100 µM | U-251 > 100 µM | SK-OV-3 > 100 µM | OVCAR-4 > 100 µM | HCC 2998 > 100 µM | MOLT-4 > 100 µM | SNB-19 > 100 µM | COLO 205 > 100 µM | SF-268 > 100 µM | MCF7 > 100 µM

CCOC(=O)C(=CNc1ccc(F)c(F)c1)C(=O)OCC
inactive: MDA-MB-435 > 100 µM | 786-0 > 100 µM | SNB-75 > 100 µM | NCI-H226 > 100 µM | SN12C > 100 µM | Malme-3M > 100 µM | CCRF-CEM 54.5 µM | SK-MEL-5 > 100 µM | U-251 > 100 µM | SK-OV-3 > 100 µM | OVCAR-4 95.3 µM | HCC 2998 > 100 µM | MOLT-4 46 µM | SNB-19 > 100 µM | COLO 205 > 100 µM | SF-268 > 100 µM | MCF7 > 100 µM

NC(Cc1ccc(S(=O)(=O)O)cc1)C(=O)NC(Cc1ccc(S(=O)(=O)O)cc1)C(=O)NC(Cc1ccc(S(=O)(=O)O)cc1)C(=O)NC(Cc1ccc(S(=O)(=O)O)cc1)C(=O)O (stereo not given)
inactive: MDA-MB-435 > 100 µM | 786-0 > 100 µM | SF-295 > 100 µM | SNB-75 > 100 µM | NCI-H226 > 100 µM | SN12C > 100 µM | Malme-3M 68.5 µM | CCRF-CEM > 100 µM | SK-MEL-5 > 100 µM | U-251 > 100 µM | SK-OV-3 > 100 µM | OVCAR-4 > 100 µM | HCC 2998 > 100 µM | MOLT-4 > 100 µM | COLO 205 > 100 µM | UACC-62 > 100 µM | SF-268 > 100 µM | MCF7 46.1 µM

O=C1OC(=O)c2cc(S(=O)(=O)c3ccc4c(c3)C(=O)OC4=O)ccc21
inactive: MDA-MB-435 > 100 µM | 786-0 > 100 µM | SF-295 > 100 µM | SNB-75 26.1 µM | NCI-H226 > 100 µM | SN12C > 100 µM | Malme-3M 24.1 µM | CCRF-CEM > 100 µM | SK-MEL-5 > 100 µM | U-251 > 100 µM | SK-OV-3 > 100 µM | OVCAR-4 > 100 µM | HCC 2998 > 100 µM | SNB-19 > 100 µM | COLO 205 > 100 µM | UACC-62 > 100 µM | SF-268 > 100 µM | MCF7 > 100 µM

CCCN(C(=O)c1c(Cl)nnc(Cl)c1C(=O)c1cc(Cl)nnc1Cl)c1cc(Cl)nnc1Cl
inactive: MDA-MB-435 6.03 µM | 786-0 5.46 µM | SF-295 19.9 µM | SNB-75 15.3 µM | NCI-H226 18.5 µM | SN12C 12.4 µM | CCRF-CEM 2.92 µM | SK-MEL-5 9.18 µM | U-251 16.2 µM | SK-OV-3 33.3 µM | OVCAR-4 14.5 µM | HCC 2998 16.9 µM | MOLT-4 3.36 µM | SNB-19 27.8 µM | COLO 205 5.77 µM | UACC-62 10.6 µM | SF-268 4.35 µM | MCF7 4.49 µM

C=C(C)[C@@H]1CCC2=C[C@@H](OC2=O)[C@@H](C(=C)C)C2=CC(C(=O)O)=C(C1)O2
inactive: MDA-MB-435 > 100 µM | 786-0 > 100 µM | SF-295 > 100 µM | SNB-75 > 100 µM | NCI-H226 > 100 µM | SN12C > 100 µM | Malme-3M > 100 µM | CCRF-CEM 38.7 µM | SK-MEL-5 > 100 µM | SK-OV-3 > 100 µM | OVCAR-4 > 100 µM | HCC 2998 > 100 µM | MOLT-4 46.3 µM | SNB-19 > 100 µM | COLO 205 > 100 µM | UACC-62 > 100 µM | SF-268 > 100 µM | MCF7 68.1 µM

Cc1ccc(S(=O)(=O)N2CC3OC(C)(C)OC3C2CO)cc1 (stereo not given)
inactive: MDA-MB-435 > 100 µM | 786-0 > 100 µM | SF-295 > 100 µM | SNB-75 > 100 µM | NCI-H226 > 100 µM | SN12C > 100 µM | Malme-3M > 100 µM | CCRF-CEM > 100 µM | SK-MEL-5 > 100 µM | U-251 > 100 µM | SK-OV-3 > 100 µM | OVCAR-4 > 100 µM | HCC 2998 > 100 µM | MOLT-4 > 100 µM | COLO 205 > 100 µM | SF-268 > 100 µM | MCF7 > 100 µM

CC(=O)OC1CC2C(C)(C)C(=O)C=CC2(C)C2CCC3(C)C(c4ccoc4)OC(=O)C4OC43C12C (stereo not given)
inactive: MDA-MB-435 3.27 µM | 786-0 9.46 µM | SF-295 14.6 µM | SNB-75 > 100 µM | NCI-H226 22.2 µM | SN12C 4.21 µM | SK-MEL-5 5.62 µM | U-251 6.14 µM | SK-OV-3 7.71 µM | OVCAR-4 32.4 µM | HCC 2998 3.33 µM | MOLT-4 8.2 µM | SNB-19 19.5 µM | COLO 205 7.5 µM | UACC-62 5.37 µM | SF-268 28.5 µM | MCF7 4.69 µM

[N-]=[N+]=Nc1cccc(-c2nnc(Cl)cc2O)c1
inactive: MDA-MB-435 > 100 µM | 786-0 > 100 µM | SF-295 > 100 µM | SNB-75 89.7 µM | NCI-H226 > 100 µM | SN12C > 100 µM | Malme-3M > 100 µM | CCRF-CEM > 100 µM | U-251 > 100 µM | SK-OV-3 > 100 µM | OVCAR-4 > 100 µM | HCC 2998 > 100 µM | MOLT-4 > 100 µM | COLO 205 > 100 µM | UACC-62 > 100 µM | SF-268 > 100 µM | MCF7 > 100 µM
